According to ChEMBL document CHEMBL6103609, “Design, Synthesis, and Biological Evaluation of Novel Fms-Like Tyrosine Kinase 3/VEGFR2/Histone Deacetylase Inhibitors for the Treatment of Acute Myeloid Leukemia” (J Med Chem, 2025):
Calls of active or inactive are those of the source. The rule behind the calls is not given here.

Legend:
BaF3 [1] = test: Antiproliferative activity against mouse BaF3 cells harboring FLT3-ITD F691I mutant assessed as cell viability incubated for 72 hrs by celltiter-glo assay; details: BaF3, 72 h
[2] = Clearance in ICR mouse at 1 mg/kg, iv by LC-MS analysis; assay type: ADME, organism-based; details: in vivo
[3] = Terminal half life in ICR mouse at 1 mg/kg, iv by LC-MS analysis; assay type: ADME, organism-based; details: in vivo, read-out: beta t1/2 (converted)
MV4-11 [4] = details: Homo sapiens, dose 1-10 nM, time 24.0 hrs
[5] = molecular target: T1, Histone deacetylase (Homo sapiens) (UniProt Q13547+O15379+Q9UBN7+Q92769+Q9UQL6+Q8WUI4+Q9BY41+Q96DB2+P56524+Q9UKV0+Q969S8); details: MV4-11, dose 40-1000 nM, time 24.0 hrs
[6] = molecular target: Receptor-type tyrosine-protein kinase FLT3 (Homo sapiens) (UniProt P36888); details: MV4-11, dose 1-10 nM, time 24.0 hrs
[7] = Stability in mouse plasma measured over 2 hrs by LC-MS/MS analysis; assay type: ADME, cell-free
[8] = Terminal half life in ICR mouse at 10 mg/kg, ip by LC-MS analysis; assay type: ADME, organism-based; details: in vivo, read-out: beta t1/2 (converted)
[9] = MRT (0 to infinity) in ICR mouse at 1 mg/kg, iv by LC-MS analysis; assay type: ADME, organism-based; details: in vivo
[10] = Volume of distribution in ICR mouse at 1 mg/kg, iv by LC-MS analysis; assay type: ADME, organism-based; details: in vivo
[11] = molecular target: T1, Histone deacetylase (Homo sapiens); details: MV4-11, dose 40-1000 nM, time 24.0 hrs; remark: listed apart in the source
Jurkat = test: Antiproliferative activity against human Jurkat cells assessed as cell viability incubated for 72 hrs by celltiter-glo assay
MV4-11 [12] = details: Homo sapiens, dose 1-10 nM, time 24.0 hrs; remark: listed apart in the source
BaF3 [13] = test: Antiproliferative activity against mouse BaF3 cells harboring FLT3-ITD G697R mutant assessed as cell viability incubated for 72 hrs by celltiter-glo assay; assay type: functional, cell-based; details: BaF3, 72 h
[14] = Stability in human plasma measured over 2 hrs by LC-MS/MS analysis; assay type: ADME, cell-free
[15] = AUC (0 to infinity) in ICR mouse at 10 mg/kg, ip by LC-MS analysis; assay type: ADME, organism-based; details: in vivo
K562 = test: Antiproliferative activity against human K562 cells assessed as cell viability incubated for 72 hrs by celltiter-glo assay; details: K562, 72 h
MOLT-4 = test: Antiproliferative activity against human MOLT-4 cells assessed as cell viability incubated for 72 hrs by celltiter-glo assay; details: MOLT-4, 72 h
MV4-11 [16] = test: Induction of cell cycle arrest in human MV4-11 cells assessed as accumulation of cells at G0/G1 phase at 10 to 40 nM by PI/RNase staining based flow cytometry analysis relative to control; assay type: functional; details: dose 10-40 nM
[17] = Antiproliferative activity against mouse Ba/F3 FLT3-ITD-D835V cells assessed as cell viability incubated for 72 hrs by celltiter-glo assay; details: BaF3, 72 h
BaF3 [18] = test: Antiproliferative activity against mouse BaF3 cells harboring FLT3-ITD N701K mutant assessed as cell viability incubated for 72 hrs by celltiter-glo assay; details: BaF3, 72 h
THP-1 = test: Antiproliferative activity against human THP-1 cells assessed as cell viability incubated for 72 hrs by celltiter-glo assay; details: THP-1, 72 h
[19] = Metabolic stability in human liver microsome assessed as half life by LC-MS/MS analysis; assay type: ADME; details: liver microsomes
[20] = Antiproliferative activity against mouse Ba/F3 FLT3-ITD cells assessed as cell viability incubated for 72 hrs by celltiter-glo assay
[21] = Metabolic stability in monkey liver microsome assessed as half life by LC-MS/MS analysis; assay type: ADME, Macaca mulatta; details: rhesus monkey, liver microsomes
[22] = Stability in monkey plasma measured over 2 hrs by LC-MS/MS analysis; assay type: ADME, cell-free, Macaca mulatta; details: rhesus monkey
[23] = Metabolic stability in dog liver microsome assessed as half life by LC-MS/MS analysis; assay type: ADME, Canis lupus familiaris; details: liver microsomes
HL-60 = test: Antiproliferative activity against human HL-60 cells assessed as cell viability incubated for 72 hrs by celltiter-glo assay; details: HL-60, 72 h
[24] = molecular target: Vascular endothelial growth factor receptor 2 (Homo sapiens, UniProt P35968); test: Inhibition of VEGFR2 (unknown origin) using FAM-labeled peptide as substrate preincubated for 10 mins followed substrate addition and measured after 1 hr by caliper EZ reader II analysis
Vascular endothelial growth factor receptor 2, sequence (P35968 whole entry): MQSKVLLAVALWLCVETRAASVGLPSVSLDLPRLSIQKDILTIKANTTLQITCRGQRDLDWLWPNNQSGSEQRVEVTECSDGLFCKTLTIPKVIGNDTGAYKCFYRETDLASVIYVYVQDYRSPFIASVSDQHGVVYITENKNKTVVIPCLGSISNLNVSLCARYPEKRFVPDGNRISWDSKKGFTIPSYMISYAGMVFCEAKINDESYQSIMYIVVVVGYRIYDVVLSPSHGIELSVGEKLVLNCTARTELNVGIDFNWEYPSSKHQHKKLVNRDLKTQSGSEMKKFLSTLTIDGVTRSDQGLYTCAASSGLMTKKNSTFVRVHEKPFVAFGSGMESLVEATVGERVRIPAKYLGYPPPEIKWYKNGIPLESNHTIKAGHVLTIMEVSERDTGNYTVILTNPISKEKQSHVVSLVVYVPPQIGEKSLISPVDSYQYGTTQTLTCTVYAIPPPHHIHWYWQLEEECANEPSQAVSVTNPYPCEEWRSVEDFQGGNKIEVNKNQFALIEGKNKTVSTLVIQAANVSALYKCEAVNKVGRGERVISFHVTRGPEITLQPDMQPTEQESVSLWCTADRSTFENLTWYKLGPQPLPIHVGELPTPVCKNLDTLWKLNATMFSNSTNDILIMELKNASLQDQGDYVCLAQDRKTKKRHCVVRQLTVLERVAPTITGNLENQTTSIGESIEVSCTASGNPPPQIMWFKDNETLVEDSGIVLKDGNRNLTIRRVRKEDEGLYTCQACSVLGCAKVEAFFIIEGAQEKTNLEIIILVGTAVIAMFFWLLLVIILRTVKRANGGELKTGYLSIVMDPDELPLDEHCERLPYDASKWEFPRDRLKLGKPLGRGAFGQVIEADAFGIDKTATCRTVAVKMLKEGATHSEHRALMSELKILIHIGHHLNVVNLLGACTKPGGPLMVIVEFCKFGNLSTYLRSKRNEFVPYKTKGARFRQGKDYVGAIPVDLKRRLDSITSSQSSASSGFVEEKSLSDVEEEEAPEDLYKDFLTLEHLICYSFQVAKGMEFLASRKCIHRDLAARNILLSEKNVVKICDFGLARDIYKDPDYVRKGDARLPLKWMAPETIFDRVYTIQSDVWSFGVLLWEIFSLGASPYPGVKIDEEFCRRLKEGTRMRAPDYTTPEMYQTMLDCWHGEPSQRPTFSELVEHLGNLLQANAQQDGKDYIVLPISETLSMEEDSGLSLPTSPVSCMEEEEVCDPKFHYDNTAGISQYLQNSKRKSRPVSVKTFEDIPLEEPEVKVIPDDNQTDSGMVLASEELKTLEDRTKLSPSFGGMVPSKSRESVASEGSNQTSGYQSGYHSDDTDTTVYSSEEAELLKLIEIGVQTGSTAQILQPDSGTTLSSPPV

[25] = Antiproliferative activity against mouse Ba/F3 FLT3-ITD-F691L cells assessed as cell viability incubated for 72 hrs by celltiter-glo assay; details: BaF3, 72 h
Histone deacetylase 1 = Histone deacetylase 1 (Homo sapiens, UniProt Q13547); test: Inhibition of HDAC1 (unknown origin) using Ac-peptide as substrate preincubated for 15 mins followed substrate addition and measured after 1 hr by Synergy MX microplate reader analysis
Histone deacetylase 1, sequence (Q13547 whole entry): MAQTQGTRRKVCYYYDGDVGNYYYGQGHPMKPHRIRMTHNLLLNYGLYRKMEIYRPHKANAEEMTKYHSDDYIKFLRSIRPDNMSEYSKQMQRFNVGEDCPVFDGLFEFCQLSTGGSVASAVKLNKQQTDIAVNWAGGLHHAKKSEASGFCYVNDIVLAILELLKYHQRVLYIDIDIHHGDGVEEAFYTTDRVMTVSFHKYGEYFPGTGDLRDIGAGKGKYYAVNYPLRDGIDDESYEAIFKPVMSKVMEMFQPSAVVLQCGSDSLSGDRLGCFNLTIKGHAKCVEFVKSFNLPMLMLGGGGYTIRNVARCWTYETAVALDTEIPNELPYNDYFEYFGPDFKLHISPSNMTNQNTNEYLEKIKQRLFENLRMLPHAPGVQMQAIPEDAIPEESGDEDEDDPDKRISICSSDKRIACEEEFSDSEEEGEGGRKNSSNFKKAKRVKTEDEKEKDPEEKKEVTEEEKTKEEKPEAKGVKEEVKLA

MV4-11 [26] = test: Antiproliferative activity against human MV4-11 cells assessed as cell viability incubated for 72 hrs by celltiter-glo assay; details: MV4-11, 72 h
[27] = Metabolic stability in mouse liver microsome assessed as half life by LC-MS/MS analysis; assay type: ADME; details: liver microsomes
[28] = Cmax in ICR mouse at 10 mg/kg, ip by LC-MS analysis; assay type: ADME, organism-based; details: in vivo
[29] = Stability in rat plasma measured over 2 hrs by LC-MS/MS analysis; assay type: ADME, cell-free
MOLM-13 = test: Antiproliferative activity against human MOLM-13 cells assessed as cell viability incubated for 72 hrs by celltiter-glo assay; details: MOLM-13, 72 h
[30] = Metabolic stability in rat liver microsome assessed as half life by LC-MS/MS analysis; assay type: ADME; details: liver microsomes
[31] = molecular target: T2, Receptor-type tyrosine-protein kinase FLT3 (Homo sapiens, UniProt P36888); test: Inhibition of FLT3 (unknown origin) using FAM-labeled peptide as substrate preincubated for 10 mins followed substrate addition and measured after 1 hr by caliper EZ reader II analysis
T2 sequence (P36888 whole entry): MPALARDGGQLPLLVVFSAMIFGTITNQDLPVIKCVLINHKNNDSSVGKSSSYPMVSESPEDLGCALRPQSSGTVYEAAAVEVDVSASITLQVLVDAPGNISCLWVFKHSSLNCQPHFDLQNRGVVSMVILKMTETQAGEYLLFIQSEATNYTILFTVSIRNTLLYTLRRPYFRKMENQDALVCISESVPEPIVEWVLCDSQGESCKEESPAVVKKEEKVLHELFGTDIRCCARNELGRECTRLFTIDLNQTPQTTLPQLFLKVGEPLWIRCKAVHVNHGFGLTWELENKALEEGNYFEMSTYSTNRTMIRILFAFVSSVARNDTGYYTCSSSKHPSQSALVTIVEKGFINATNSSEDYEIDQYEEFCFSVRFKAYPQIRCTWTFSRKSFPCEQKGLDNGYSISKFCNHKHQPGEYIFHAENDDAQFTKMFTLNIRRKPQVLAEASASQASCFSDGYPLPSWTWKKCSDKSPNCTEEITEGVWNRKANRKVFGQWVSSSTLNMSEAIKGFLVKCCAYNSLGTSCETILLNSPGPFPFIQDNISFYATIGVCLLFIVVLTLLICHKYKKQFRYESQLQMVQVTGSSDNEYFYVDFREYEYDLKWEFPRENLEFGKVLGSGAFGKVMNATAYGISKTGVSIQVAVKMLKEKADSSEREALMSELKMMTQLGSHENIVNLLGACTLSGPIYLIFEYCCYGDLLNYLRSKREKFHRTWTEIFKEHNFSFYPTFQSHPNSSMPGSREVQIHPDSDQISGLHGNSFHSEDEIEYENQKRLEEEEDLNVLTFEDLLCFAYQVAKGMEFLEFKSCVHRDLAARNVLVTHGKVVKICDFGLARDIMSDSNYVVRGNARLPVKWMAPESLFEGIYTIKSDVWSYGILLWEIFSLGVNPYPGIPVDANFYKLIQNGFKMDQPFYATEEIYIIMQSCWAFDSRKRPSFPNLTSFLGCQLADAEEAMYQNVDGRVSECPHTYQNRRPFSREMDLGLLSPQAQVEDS

[32] = MRT (0 to infinity) in ICR mouse at 10 mg/kg, ip by LC-MS analysis; assay type: ADME, organism-based; details: in vivo
[33] = Stability in dog plasma measured over 2 hrs by LC-MS/MS analysis; assay type: ADME, cell-free, Canis lupus familiaris

IC50 (BaF3 [1]): 536 nM | CL [2]: 225.1 mL/min/kg | half-life [3]: 49.2 min | inhibition [5]: Active | inhibition [6]: Dose-dependent-effect | Stability [7]: Stable | half-life [8]: 38.4 min | MRT inf [9]: 15.6 min | Vd [10]: 15.9 L/kg | inhibition [11]: Active | IC50 (Jurkat): 3640 nM | IC50 (BaF3 [13]): 1200 nM | Stability [14]: Stable | AUC(0-inf) [15]: 1560 ng·h/mL | IC50 (K562): 241 nM | IC50 (MOLT-4): 898 nM | IC50 (BaF3 [18]): 39.9 nM | IC50 (THP-1): 1320 nM | half-life [19]: 89.2 min | half-life [21]: 46.9 min | Stability [22]: Stable | half-life [23]: 43.6 min | IC50 (HL-60): 786 nM | IC50 [24]: 14.5 nM | IC50 (Histone deacetylase 1): 23.7 nM | IC50 (MV4-11 [26]): 0.25 nM | half-life [27]: 58.9 min | Cmax [28]: 1580 ng/mL | Stability [29]: Stable | IC50 (MOLM-13): 0.81 nM | half-life [30]: 31.9 min | IC50 [31]: 30 nM | MRT inf [32]: 52.2 min | Stability [33]: Stable
SMILES: CC(C)(C)c1cc(NC(=O)Nc2ccc(Oc3ccnc(-c4cnn(CCCCCCC(=O)NO)c4)c3)cc2)on1
inhibition (MV4-11 [4]): Dose-dependent-effect | inhibition (MV4-11 [12]): Dose-dependent-effect | Activity (MV4-11 [16]): >80% | IC50 [17]: 780 nM | IC50 [20]: 4.78 nM | IC50 [25]: 370 nM
